Data: US11000571B2 (priority 2016, dated 2021)
Read-outs that look alike come from different tables or passages of the source.

Tests used:
[1] = test system: cultured neurons and astrocytes; settings: cited from earlier work
[2] = test system: MMP-9 (metalloproteinase-9); design: species or system C57BL/6J mice; settings: mouse, in vivo
[3] = test system: intracerebral hemorrhage (“ICH”) mouse model; design: species or system C57BL/6J mice; settings: in vivo

Hemin
kill of cultured neurons and astrocytes [1]: 60%-70%

PHGGGWGQPHGGGWGQ [SEQ ID NO:3]
MMP9 serum levels [2]: diminished | behavioral and neurological deficits following induction of ICH (overall) [3]: efficacious at diminishing the behavioral and neurological deficits | circling behavior [3]: exception | sensory response component of 28-point scale [3]: improved at statistically significant levels | neurofunction (pilot studies) ([3]; 16 mg/kg): improved neurofunction | sensory response component of 28-point scale ([3]; 16 mg/kg): improved at statistically significant levels | sensory response component of 28-point scale ([3]; 32 mg/kg): improved at statistically significant levels
